From US11066414B2, “Cot modulators and methods of use thereof” (Gilead Sciences, Inc., priority 2015, dated 2021) come the findings set out here.

One experiment concerns TNFα. The experiment is described as follows: Cot Monocyte TNFα Cell Based Assay.
The target in a further experiment is Human Cot (Homo sapiens (Human), UniProt P41279). In words: High Throughput Cot Biochemical Assay. Particulars: Cot HTRF (TR-FRET KinEASE) biochemical assay, 400 μM ATP.
[1] abbreviates: Homo sapiens, Monocyte, read-out: EC50 TNF, LPS-stimulated human monocytes, TNFα TR-FRET.
Where [2] appears, read: read-out: EC50 TNF, LPS-stimulated human monocytes, TNFα TR-FRET.

Read-outs that look alike come from different tables or passages of the source.

Sequence of Human Cot (P41279 30-397): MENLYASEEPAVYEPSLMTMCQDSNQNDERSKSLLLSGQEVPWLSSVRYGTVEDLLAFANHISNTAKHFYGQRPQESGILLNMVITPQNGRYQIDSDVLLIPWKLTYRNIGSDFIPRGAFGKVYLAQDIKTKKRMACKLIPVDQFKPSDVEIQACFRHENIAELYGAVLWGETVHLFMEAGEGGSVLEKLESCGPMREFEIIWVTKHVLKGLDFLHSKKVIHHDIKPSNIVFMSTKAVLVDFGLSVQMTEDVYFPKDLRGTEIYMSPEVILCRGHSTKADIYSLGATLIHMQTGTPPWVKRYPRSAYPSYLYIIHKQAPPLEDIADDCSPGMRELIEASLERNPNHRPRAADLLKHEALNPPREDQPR

For orientation: EC50 means the concentration at which the effect is half-maximal. Broadly, the IC50 is the midpoint of a concentration-inhibition curve. `CC(C)(C)CNc1c(C#N)cnc2c(C#N)cc(N[C@H](c3cn(C4(C(F)(F)F)CC4)nn3)c3cccc4c(=O)n(C(F)F)ccc34)cc12` [Example 889, (S)-6-(((2-(difluoromethyl)-1-oxo-1,2-dihydroisoquinolin-5-yl)(1-(1-(trifluoromethyl)cyclopropyl)-1H-1,2,3-triazol-4-yl)methyl)amino)-4-(neopentylamino)quinoline-3,8-dicarbonitrile]: the EC50 in the experiment on TNFα (setting [1]) is 104 nM. The compound also had an IC50 on Human Cot (IC50 HTRF) of 9 nM.

Turning to `Cn1c(=O)ccc2c([C@H](Nc3cc(C#N)c4ncc(C#N)c(NCC(C)(C)C)c4c3)c3cn(C4(C(F)(F)F)CC4)nn3)cccc21` [Example 890, (S)-6-(((1-methyl-2-oxo-1,2-dihydroquinolin-5-yl)(1-(1-(trifluoromethyl)cyclopropyl)-1H-1,2,3-triazol-4-yl)methyl)amino)-4-(neopentylamino)quinoline-3,8-dicarbonitrile], in the experiment with TNFα (setting [1]), the concentration giving a half-maximal response (EC50) came to 68 nM. The same compound showed an IC50 on Human Cot (IC50 HTRF) of 6 nM.

As for `Cn1ccc2c([C@H](Nc3cc(C#N)c4ncc(C#N)c(NCC(C)(C)C)c4c3)c3cn(C45CC(C4)C5)nn3)cccc2c1=O` [Example 891, (S)-6-(((1-(bicyclo[1.1.1]pentan-1-yl)-1H-1,2,3-triazol-4-yl)(2-methyl-1-oxo-1,2-dihydroisoquinolin-5-yl)methyl)amino)-4-(neopentylamino)quinoline-3,8-dicarbonitrile], the EC50 in the experiment on TNFα (setting [1]) turned out to be 12 nM. At Human Cot (IC50 HTRF), it took 1 nM to reach half-maximal inhibition (IC50).

For `C[C@@H](CF)n1cc([C@@H](Nc2cc(C#N)c3ncc(C#N)c(NCC(C)(C)C)c3c2)c2cccc3ncccc23)nn1` [Example 892, 6-(((S)-(1-((S)-1-fluoropropan-2-yl)-1H-1,2,3-triazol-4-yl)(quinolin-5-yl)methyl)amino)-4-(neopentylamino)quinoline-3,8-dicarbonitrile], in the experiment on TNFα (setting [1]), the EC50 was determined as 44 nM. Half-maximal inhibition against Human Cot (IC50 HTRF) (IC50) was put at 2 nM.

For `CC(C)(C)CNc1c(C#N)cnc2c(C#N)cc(N[C@H](c3cn(C(CF)CF)nn3)c3cccc4ncccc34)cc12` [Example 893, (S)-6-(((1-(1,3-difluoropropan-2-yl)-1H-1H-1,2,3-triazol-4-yl)(quinolin-5-yl)methyl)amino)-4-(neopentyl-amino)quinoline-3,8-dicarbonitrile], the EC50 in the experiment on TNFα (setting [2]) amounted to 99 nM. The IC50 at Human Cot (read-out: IC50 HTRF) came to 4 nM.

Regarding `CC(C)(CNc1c(C#N)cnc2c(C#N)cc(N[C@H](c3cn(C4(C(F)F)CC4)nn3)c3cccc4ncccc34)cc12)C(F)(F)F` [Example 894], the concentration for a half-maximal effect (EC50) in the experiment with TNFα (setting [2]) was 54 nM. The IC50 on Human Cot (read-out: IC50 HTRF) amounted to 3 nM.

`CC(C)(CNc1c(C#N)cnc2c(C#N)cc(N[C@H](c3cn(C4(C5CC5)CC4)nn3)c3cccc4ncccc34)cc12)C(F)(F)F` [Example 896, (S)-6-(((1-([1,1′-bi(cyclopropan)]-1-yl)-1H-1,2,3-triazol-4-yl)(quinolin-5-yl)methyl)amino)-4-((3,3,3-trifluoro-2,2-dimethylpropyl)amino)quinoline-3,8-dicarbonitrile]: the EC50 in the experiment on TNFα (setting [1]) was found to be 30 nM. Moreover, 3 nM corresponded to half-maximal inhibition at Human Cot (IC50 HTRF) (IC50).

With `CC(C)(CNc1c(C#N)cnc2c(C#N)cc(N[C@H](c3cn(C45CC(C4)C5)nn3)c3cccc4ncccc34)cc12)C(F)(F)F` [Example 897, (S)-6-(((1-(bicyclo[1.1.1]pentan-1-yl)-1H-1,2,3-triazol-4-yl)(quinolin-5-yl)methyl)amino)-4-((3,3,3-trifluoro-2,2-dimethylpropyl)amino)quinoline-3,8-dicarbonitrile], the EC50 with TNFα (setting [1]) was 18 nM. Besides, at Human Cot (IC50 HTRF), the IC50 came out at 2 nM.

In the case of `CC(C)(C)CNc1c(C#N)cnc2c(C#N)cc(N[C@H](c3cn([C@@H]4C[C@@H]4F)nn3)c3cccc4ncccc34)cc12` [Example 899, 6-(((S)-(1-((1R,2S)-2-fluorocyclopropyl)-1H-1,2,3-triazol-4-yl)(quinolin-5-yl)methyl)amino)-4-(neopentylamino)quinoline-3,8-dicarbonitrile], the EC50 with TNFα (setting [1]) turned out to be 29 nM. The midpoint of inhibition at Human Cot (IC50 HTRF), the IC50, lay at 2 nM.

Turning to `Cc1ccc2c([C@H](Nc3cc(C#N)c4ncc(C#N)c(NCC(C)(C)C)c4c3)c3cn(C45CC(C4)C5)nn3)cccc2n1` [Example 900, (S)-6-(((1-(bicyclo[1.1.1]pentan-1-yl)-1H-1,2,3-triazol-4-yl)(2-methylquinolin-5-yl)methyl)amino)-4-(neopentylamino)quinoline-3,8-dicarbonitrile], in the experiment with TNFα (setting [1]), the EC50 amounted to 30 nM. The compound further gave a half-inhibitory concentration (IC50) at Human Cot (IC50 HTRF) of 3 nM.

With `CC(C)(C)CNc1c(C#N)cnc2c(C#N)cc(N[C@H](c3cn(C45CC(C4)C5)nn3)c3cccc4nc(C(F)F)ccc34)cc12` [Example 901, (S)-6-(((1-(bicyclo[1.1.1]pentan-1-yl)-1H-1,2,3-triazol-4-yl)(2-(difluoromethyl)quinolin-5-yl)methyl)amino)-4-(neopentylamino)quinoline-3,8-dicarbonitrile], the EC50 with TNFα (setting [1]) amounted to 1000 nM. At Human Cot (IC50 HTRF), the IC50 worked out at 484 nM.

For the compound `Cc1ccc2c([C@H](Nc3cc(C#N)c4ncc(C#N)c(NCC(C)(C)C)c4c3)c3cn(C4(C)CC4)nn3)cccc2n1` [Example 902], in the experiment with TNFα (setting [2]), the concentration giving a half-maximal response (EC50) was 36 nM. Also, the IC50 on Human Cot (read-out: IC50 HTRF) was 3 nM.

Take `Cc1ncsc1[C@H](Nc1cc(C#N)c2ncc(C#N)c(NCC(C)(C)C)c2c1)c1cn(C2(C(F)(F)F)CC2)nn1` [Example 904, (R)-6-(((4-methylthiazol-5-yl)(1-(1-(trifluoromethyl)cyclopropyl)-1H-1,2,3-triazol-4-yl)methyl)amino)-4-(neopentylamino)quinoline-3,8-dicarbonitrile]: in the experiment on TNFα (setting [1]), the EC50 is 78 nM. Moreover, the half-inhibitory concentration (IC50) against Human Cot (IC50 HTRF) turned out to be 5 nM.

As for `Cc1nnc(C2(n3cc([C@@H](Nc4cc(C#N)c5ncc(C#N)c(NCC(C)(C)C)c5c4)c4ccc(F)nc4C)nn3)CC2)o1` [Example 907, (S)-6-(((6-fluoro-2-methylpyridin-3-yl)(1-(1-(5-methyl-l,3,4-oxadiazol-2-yl)cyclopropyl)-1H-1,2,3-triazol-4-yl)methyl)amino)-4-(neopentylamino)quinoline-3,8-dicarbonitrile], the EC50 with TNFα (setting [2]) stood at 51 nM. Moreover, the IC50 on Human Cot (read-out: IC50 HTRF) was 4 nM.

`CC(C)(C)CNc1c(C#N)cnc2c(C#N)cc(N[C@H](c3cn(C4(C(F)(F)F)CC4)nn3)c3cccc4cnc(C#N)cc34)cc12` [Example 909, (S)-6-(((3-cyanoisoquinolin-5-yl)(1-(1-(trifluoromethyl)cyclopropyl)-1H-1,2,3-triazol-4-yl)methyl)amino)-4-(neopentylamino)quinoline-3,8-dicarbonitrile]: in the experiment on TNFα (setting [1]), the EC50 came out at 116 nM. The compound further yielded an IC50 against Human Cot (IC50 HTRF) of 8 nM.

On to `CC(C)(C)CNc1c(C#N)cnc2c(C#N)cc(N[C@H](c3cn(C4(C(F)(F)F)CC4)nn3)c3ccc(C#N)c4ncccc34)cc12` [Example 910, (S)-6-(((8-cyanoquinolin-5-yl)(1-(1-(trifluoromethyl)cyclopropyl)-1H-1,2,3-triazol-4-yl)methyl)amino)-4-(neopentylamino)quinoline-3,8-dicarbonitrile], for which the half-maximal effective concentration (EC50) with TNFα (setting [1]) came to 148 nM. Further, at Human Cot (IC50 HTRF), the IC50 amounted to 5 nM.

As for `COc1nccc2c([C@H](Nc3cc(Cl)c4ncc(C#N)c(NCC(C)(C)C)c4c3)c3cn(C45CC(C4)C5)nn3)cccc12` [Example 911, (S)-6-(((1-(bicyclo[1.1.1]pentan-1-yl)-1H-1,2,3-triazol-4-yl)(1-methoxylsoquinolin-5-yl)methyl)amino)-8-chloro-4-(neopentylamino)quinoline-3-carbonitrile], in the experiment on TNFα (setting [2]), the EC50 worked out at 85 nM. Also, the IC50 at Human Cot (read-out: IC50 HTRF) worked out at 7 nM.

Take `COc1nccc2c([C@H](Nc3cc(Cl)c4ncc(C#N)c(NCC(C)(C)C)c4c3)c3cn(C4CC4)nn3)cccc12` [Example 912, (S)-8-chloro-6-(((1-cyclopropyl-1H-1,2,3-triazol-4-yl)(1-methoxylsoquinolin-5-yl)methyl)amino)-4-(neopentylamino)quinoline-3-carbonitrile]: the EC50 in the experiment on TNFα (setting [2]) came to 78 nM. Besides, the IC50 at Human Cot (read-out: IC50 HTRF) is 6 nM.

As to `COc1nccc2c([C@H](Nc3cc(Cl)c4ncc(C#N)c(NCC(C)(C)C)c4c3)c3cn(C4(C)CC4)nn3)cccc12` [Example 913, (S)-8-chloro-6-(((1-methoxylsoquinolin-5-yl)(1-(1-methylcyclopropyl)-1H-1,2,3-triazol-4-yl)methyl)amino)-4-(neopentylamino)quinoline-3-carbonitrile], the EC50 in the experiment on TNFα (setting [2]) is 86 nM. For the same compound, the 50% inhibitory concentration (IC50) on Human Cot (read-out: IC50 HTRF) is 6 nM.

Take `COc1nccc2c([C@H](Nc3cc(Cl)c4ncc(C#N)c(NCC(C)(C)C)c4c3)c3cn(C4(C(F)F)CC4)nn3)cccc12` [Example 914, (S)-8-chloro-6-(((1-(1-(difluoromethyl)cyclo-propyl)-1H-1,2,3-triazol-4-yl)(1-methoxylsoquinolin-5-yl)methyl)amino)-4-(neopentylamino)quinoline-3-carbonitrile]: the EC50 with TNFα (setting [2]) was found to be 116 nM. The IC50 at Human Cot (read-out: IC50 HTRF) is 9 nM.

As to `CC(C)(C)CNc1c(C#N)cnc2c(Cl)cc(N[C@H](c3cn(C4(C(F)(F)F)CC4)nn3)c3cccc4cnc(Cl)cc34)cc12` [Example 915, (S)-8-chloro-6-(((3-chloroisoquinolin-5-yl)(1-(1-(trifluoromethyl)cyclopropyl)-1H-1,2,3-triazol-4-yl)methyl)amino)-4-(neopentylamino)quinoline-3-carbonitrile], the EC50 with TNFα (setting [1]) is 324 nM. Besides, the IC50 against Human Cot (IC50 HTRF) stood at 44 nM.

As to `CC(C)(CNc1c(C#N)cnc2c(Cl)cc(N[C@H](c3cn(C45CC(C4)C5)nn3)c3ccc(F)c4ncccc34)cc12)C(F)(F)F` [Example 917, (S)-6-(((1-(bicyclo[1.1.1]pentan-1-yl)-1H-1,2,3-triazol-4-yl)(8-fluoroquinolin-5-yl)methyl)amino)-8-chloro-4-((3,3,3-trifluoro-2,2-dimethylpropyl)amino)quinoline-3-carbonitrile], the EC50 with TNFα (setting [1]) worked out at 31 nM. Further, on Human Cot (IC50 HTRF), the IC50 is 3 nM.
